We go through three compounds from ChEMBL document CHEMBL1909046, “DrugMatrix in vitro pharmacology data”.

SMILES strings stand for the structures.

Chain of Delta-type opioid receptor (P41143 whole entry): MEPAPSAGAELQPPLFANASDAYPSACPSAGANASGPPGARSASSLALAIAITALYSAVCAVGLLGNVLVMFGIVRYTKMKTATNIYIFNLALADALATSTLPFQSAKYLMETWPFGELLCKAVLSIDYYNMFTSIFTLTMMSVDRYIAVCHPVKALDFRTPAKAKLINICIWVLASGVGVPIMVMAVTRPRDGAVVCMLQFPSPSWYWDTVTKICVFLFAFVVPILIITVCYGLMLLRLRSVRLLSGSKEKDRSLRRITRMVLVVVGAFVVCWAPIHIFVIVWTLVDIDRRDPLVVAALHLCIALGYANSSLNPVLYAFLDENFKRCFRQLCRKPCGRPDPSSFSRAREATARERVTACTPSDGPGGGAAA

One series addresses T1, Alpha-1A adrenergic receptor (Rattus norvegicus, UniProt P43140).
T1 sequence (P43140 whole entry): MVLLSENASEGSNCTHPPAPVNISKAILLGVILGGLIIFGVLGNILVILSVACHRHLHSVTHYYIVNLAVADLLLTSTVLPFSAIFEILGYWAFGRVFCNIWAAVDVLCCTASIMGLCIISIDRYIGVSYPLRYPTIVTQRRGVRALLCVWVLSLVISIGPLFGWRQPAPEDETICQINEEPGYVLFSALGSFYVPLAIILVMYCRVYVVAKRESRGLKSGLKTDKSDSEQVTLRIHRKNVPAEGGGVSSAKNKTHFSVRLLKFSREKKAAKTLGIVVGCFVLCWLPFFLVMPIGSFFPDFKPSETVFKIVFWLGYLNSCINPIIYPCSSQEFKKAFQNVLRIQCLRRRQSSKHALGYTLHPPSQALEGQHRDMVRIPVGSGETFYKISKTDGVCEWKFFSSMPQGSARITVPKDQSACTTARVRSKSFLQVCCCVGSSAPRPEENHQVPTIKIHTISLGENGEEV
In words: DRUGMATRIX: Alpha-1A adrenergic receptor radioligand binding (ligand: prazosin). The note with it: Not Active = under 50% inhibition at 10 µM. Format: cell membranes, Wistar, Submaxillary gland, Membrane.
Consider `COc1cccc2c1C(=O)c1c(O)c3c(c(O)c1C2=O)C[C@@](O)(C(=O)CO)C[C@@H]3O[C@H]1C[C@H](N)[C@H](O)[C@H](C)O1` [DOXORUBICIN], for which the IC50 entry is on record as “Not Active”.
Still for that read-out and setting: the result for `COc1cccc2c1C(=O)c1c(O)c3c(c(O)c1C2=O)C[C@@](O)(C(=O)CO)C[C@@H]3O[C@H]1C[C@H](N)[C@@H](O)[C@H](C)O1` [EPIRUBICIN] reads “Not Active”.
The same measure, in the same setting: the result for `C[C@]12CC[C@@H]3c4ccc(OC(=O)c5ccccc5)cc4CC[C@H]3[C@@H]1CC[C@@H]2O` [ESTRADIOL BENZOATE] reads “Not Active”.

Test system in the next series: not listed separately
In words: DRUGMATRIX: Sigma2 radioligand binding (ligand: [3H] Ifenprodil). Particulars: Not Active = under 50% inhibition at 10 µM. The format is cell membranes, Rattus norvegicus, Wistar, Brain, Membrane.
Regarding `COc1cccc2c1C(=O)c1c(O)c3c(c(O)c1C2=O)C[C@@](O)(C(=O)CO)C[C@@H]3O[C@H]1C[C@H](N)[C@H](O)[C@H](C)O1` [DOXORUBICIN], the IC50 entry is “Not Active” and the Ki entry is “Not Active”.
Take `COc1cccc2c1C(=O)c1c(O)c3c(c(O)c1C2=O)C[C@@](O)(C(=O)CO)C[C@@H]3O[C@H]1C[C@H](N)[C@@H](O)[C@H](C)O1` [EPIRUBICIN]: the IC50 entry is “Not Active” and the Ki result is “Not Active”.
Turning to `C[C@]12CC[C@@H]3c4ccc(OC(=O)c5ccccc5)cc4CC[C@H]3[C@@H]1CC[C@@H]2O` [ESTRADIOL BENZOATE], the IC50 entry is “Not Active” and the Ki result is given as “Not Active”.

Test system in another series: not listed separately
In words: DRUGMATRIX: Tumor Necrosis Factor (TNF), Non-Selective radioligand binding (ligand: [125I] TNF-alpha). Format: cell membranes, Membrane. Particulars: u-937; Not Active = under 50% inhibition at 10 µM.
As to `COc1cccc2c1C(=O)c1c(O)c3c(c(O)c1C2=O)C[C@@](O)(C(=O)CO)C[C@@H]3O[C@H]1C[C@H](N)[C@H](O)[C@H](C)O1` [DOXORUBICIN], the IC50 entry is reported as “Not Active” and the Ki result is “Not Active”.
In the case of `COc1cccc2c1C(=O)c1c(O)c3c(c(O)c1C2=O)C[C@@](O)(C(=O)CO)C[C@@H]3O[C@H]1C[C@H](N)[C@@H](O)[C@H](C)O1` [EPIRUBICIN], the IC50 entry is listed as “Not Active” and the Ki result was “Not Active”.
Regarding `C[C@]12CC[C@@H]3c4ccc(OC(=O)c5ccccc5)cc4CC[C@H]3[C@@H]1CC[C@@H]2O` [ESTRADIOL BENZOATE], the IC50 result is “Not Active” and the Ki entry is listed as “Not Active”.

The target of the next series is D(1A) dopamine receptor (Homo sapiens, UniProt P21728). In words: DRUGMATRIX: Dopamine D1 radioligand binding (ligand: [3H] SCH-23390). The note with it: cho; Not Active = under 50% inhibition at 10 µM. Format: cell membranes, Membrane.
Chain of D(1A) dopamine receptor (P21728 whole entry): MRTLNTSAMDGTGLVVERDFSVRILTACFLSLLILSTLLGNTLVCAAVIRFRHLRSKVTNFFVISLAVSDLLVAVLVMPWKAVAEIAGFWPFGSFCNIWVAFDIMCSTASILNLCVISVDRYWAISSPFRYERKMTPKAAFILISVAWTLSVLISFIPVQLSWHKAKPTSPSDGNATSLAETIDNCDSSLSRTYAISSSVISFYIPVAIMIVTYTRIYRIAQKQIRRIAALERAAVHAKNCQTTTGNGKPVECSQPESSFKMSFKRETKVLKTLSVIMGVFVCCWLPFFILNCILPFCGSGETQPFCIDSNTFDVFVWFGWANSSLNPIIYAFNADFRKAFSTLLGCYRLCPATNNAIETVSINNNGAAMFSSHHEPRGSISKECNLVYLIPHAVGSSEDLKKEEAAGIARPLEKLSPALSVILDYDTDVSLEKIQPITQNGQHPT
Take `COc1cccc2c1C(=O)c1c(O)c3c(c(O)c1C2=O)C[C@@](O)(C(=O)CO)C[C@@H]3O[C@H]1C[C@H](N)[C@H](O)[C@H](C)O1` [DOXORUBICIN]: the IC50 entry is reported as “Not Active”.
On the same count and under the same terms, to `COc1cccc2c1C(=O)c1c(O)c3c(c(O)c1C2=O)C[C@@](O)(C(=O)CO)C[C@@H]3O[C@H]1C[C@H](N)[C@@H](O)[C@H](C)O1` [EPIRUBICIN] belongs “Not Active”; to `C[C@]12CC[C@@H]3c4ccc(OC(=O)c5ccccc5)cc4CC[C@H]3[C@@H]1CC[C@@H]2O` [ESTRADIOL BENZOATE], “Not Active”.

Another series concerns the target Delta-type opioid receptor (Homo sapiens, UniProt P41143). Format: cell membranes, HEK293, Membrane. The note with it: hek293. Note: in other assays of this panel Not Active means under 50% inhibition at 10 µM.
With `COc1cccc2c1C(=O)c1c(O)c3c(c(O)c1C2=O)C[C@@](O)(C(=O)CO)C[C@@H]3O[C@H]1C[C@H](N)[C@H](O)[C@H](C)O1` [DOXORUBICIN], the IC50 entry is “Not Active”.
For `COc1cccc2c1C(=O)c1c(O)c3c(c(O)c1C2=O)C[C@@](O)(C(=O)CO)C[C@@H]3O[C@H]1C[C@H](N)[C@@H](O)[C@H](C)O1` [EPIRUBICIN], the IC50 entry is given as “Not Active”.
On the same count and under the same terms, the result for `C[C@]12CC[C@@H]3c4ccc(OC(=O)c5ccccc5)cc4CC[C@H]3[C@@H]1CC[C@@H]2O` [ESTRADIOL BENZOATE] reads “Not Active”.

A further series deals with cGMP-specific 3',5'-cyclic phosphodiesterase (Homo sapiens, UniProt O76074). In words: DRUGMATRIX: Phosphodiesterase PDE5 enzyme inhibition (substrate: [3H]cGMP + cGMP). Format: tissue-based. Particulars: platelet; Not Active = under 50% inhibition at 10 µM.
As for `COc1cccc2c1C(=O)c1c(O)c3c(c(O)c1C2=O)C[C@@](O)(C(=O)CO)C[C@@H]3O[C@H]1C[C@H](N)[C@H](O)[C@H](C)O1` [DOXORUBICIN], the IC50 result is listed as “Not Active”.
Consider `COc1cccc2c1C(=O)c1c(O)c3c(c(O)c1C2=O)C[C@@](O)(C(=O)CO)C[C@@H]3O[C@H]1C[C@H](N)[C@@H](O)[C@H](C)O1` [EPIRUBICIN], for which the IC50 entry is on record as “Not Active”.
Same read-out and setting: the result for `C[C@]12CC[C@@H]3c4ccc(OC(=O)c5ccccc5)cc4CC[C@H]3[C@@H]1CC[C@@H]2O` [ESTRADIOL BENZOATE] reads “Not Active”.

Another series concerns the target T2, 5-hydroxytryptamine receptor 1A (Rattus norvegicus, UniProt P19327). Note: in other assays of this panel Not Active means under 50% inhibition at 10 µM.
T2 sequence (P19327 whole entry): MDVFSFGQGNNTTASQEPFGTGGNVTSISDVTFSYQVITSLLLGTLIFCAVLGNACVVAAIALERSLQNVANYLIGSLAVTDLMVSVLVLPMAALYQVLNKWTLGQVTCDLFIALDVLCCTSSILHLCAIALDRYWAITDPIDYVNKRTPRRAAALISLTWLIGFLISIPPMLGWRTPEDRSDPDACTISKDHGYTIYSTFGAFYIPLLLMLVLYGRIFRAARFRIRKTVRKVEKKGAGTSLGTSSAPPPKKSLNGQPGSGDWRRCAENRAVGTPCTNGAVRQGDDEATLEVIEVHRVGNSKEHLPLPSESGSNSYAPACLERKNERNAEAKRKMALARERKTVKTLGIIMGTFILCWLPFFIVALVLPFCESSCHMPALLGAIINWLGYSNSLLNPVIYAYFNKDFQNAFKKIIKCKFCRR
Format: cell membranes, Membrane. The note with it: cho-k1.
`COc1cccc2c1C(=O)c1c(O)c3c(c(O)c1C2=O)C[C@@](O)(C(=O)CO)C[C@@H]3O[C@H]1C[C@H](N)[C@H](O)[C@H](C)O1` [DOXORUBICIN]: the IC50 result is “Not Active”.
Still for that read-out and setting: to `COc1cccc2c1C(=O)c1c(O)c3c(c(O)c1C2=O)C[C@@](O)(C(=O)CO)C[C@@H]3O[C@H]1C[C@H](N)[C@@H](O)[C@H](C)O1` [EPIRUBICIN] belongs “Not Active”; to `C[C@]12CC[C@@H]3c4ccc(OC(=O)c5ccccc5)cc4CC[C@H]3[C@@H]1CC[C@@H]2O` [ESTRADIOL BENZOATE], “Not Active”.

Another series deals with T3, Cytochrome P450 1A2 (Homo sapiens, UniProt P05177).
T3 sequence (P05177 whole entry): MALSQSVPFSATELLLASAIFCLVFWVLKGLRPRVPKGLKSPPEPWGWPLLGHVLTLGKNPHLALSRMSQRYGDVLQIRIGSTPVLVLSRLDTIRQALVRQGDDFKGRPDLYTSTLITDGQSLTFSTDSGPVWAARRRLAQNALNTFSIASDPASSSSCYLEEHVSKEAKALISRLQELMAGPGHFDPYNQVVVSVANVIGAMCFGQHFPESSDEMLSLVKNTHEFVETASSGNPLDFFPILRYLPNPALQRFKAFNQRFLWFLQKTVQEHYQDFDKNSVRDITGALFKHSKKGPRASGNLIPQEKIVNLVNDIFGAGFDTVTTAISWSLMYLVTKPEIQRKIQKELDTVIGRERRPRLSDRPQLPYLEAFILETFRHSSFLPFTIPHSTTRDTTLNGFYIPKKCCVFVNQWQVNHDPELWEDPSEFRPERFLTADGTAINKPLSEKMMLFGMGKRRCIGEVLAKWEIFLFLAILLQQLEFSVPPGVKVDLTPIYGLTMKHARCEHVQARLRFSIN
Particulars: bti-tn-5b1-4.
As for `COc1cccc2c1C(=O)c1c(O)c3c(c(O)c1C2=O)C[C@@](O)(C(=O)CO)C[C@@H]3O[C@H]1C[C@H](N)[C@H](O)[C@H](C)O1` [DOXORUBICIN], the IC50 entry is on record as “Not Active” and the Ki entry is “Not Active”.
With `COc1cccc2c1C(=O)c1c(O)c3c(c(O)c1C2=O)C[C@@](O)(C(=O)CO)C[C@@H]3O[C@H]1C[C@H](N)[C@@H](O)[C@H](C)O1` [EPIRUBICIN], the IC50 entry is on record as “Not Active” and the Ki entry is listed as “Not Active”.
Turning to `C[C@]12CC[C@@H]3c4ccc(OC(=O)c5ccccc5)cc4CC[C@H]3[C@@H]1CC[C@@H]2O` [ESTRADIOL BENZOATE], the IC50 entry is given as “Not Active” and the Ki entry is given as “Not Active”.
